Source: the NIST ThermoML archive (doi:10.1021/je8001464)

Assay: mn = molality of the nth substance listed, in mol/kg
Conditions: 101 kPa, Liquid

NCC(=O)O [2-aminoacetic acid] + O
Conditions | mass density [kg/m3]
288.15 K, m1 = 0.07326 | 1001.51
288.15 K, m1 = 0.1458 | 1003.85
288.15 K, m1 = 0.2326 | 1006.63
288.15 K, m1 = 0.2824 | 1008.21
288.15 K, m1 = 0.3277 | 1009.64
288.15 K, m1 = 0.4371 | 1013.07
298.15 K, m1 = 0.1536 | 1001.88
298.15 K, m1 = 0.2528 | 1004.96
298.15 K, m1 = 0.302 | 1006.47
298.15 K, m1 = 0.3469 | 1007.84
298.15 K, m1 = 0.4593 | 1011.25
308.15 K, m1 = 0.07746 | 993.053
308.15 K, m1 = 0.2534 | 998.473
308.15 K, m1 = 0.3017 | 999.939
308.15 K, m1 = 0.3466 | 1001.29
308.15 K, m1 = 0.4586 | 1004.65
318.15 K, m1 = 0.1525 | 994.942
318.15 K, m1 = 0.2564 | 998.093
318.15 K, m1 = 0.3091 | 999.679
318.15 K, m1 = 0.3656 | 1001.36
318.15 K, m1 = 0.4809 | 1004.79

[Cl-].[Cl-].[Zn+2] [zinc chloride] + O
mass density [kg/m3]
Conditions | 288.15 K | 298.15 K | 308.15 K | 318.15 K
m1 = 0.1 | 1011.64 | 1009.38 | 1005.93 | 1002.03
m1 = 0.5 | 1058.86 | 1055.44 | 1047.95 | 1043.29
m1 = 1 | 1113.88 | 1106.55 | 1097.59 | 1090.83
m1 = 1.5 | 1160.53 | 1152.82 | 1142.54 | 1135.27
